Results from ChEMBL document CHEMBL1139805, “Marine natural products from the Turkish sponge Agelas oroides that inhibit the enoyl reductases from Plasmodium falciparum, Mycobacterium tuberculosis and Escherichia coli” (Bioorg Med Chem, 2007).
pIC50, pKi: −log10 of the molar value. Converted amounts (≈) assume the structure as drawn.

Assays:
[1] = target: T1, Enoyl-acyl-carrier protein reductase (Plasmodium falciparum, UniProt Q965D5); assay: Inhibition of Plasmodium falciparum FabI
T1 sequence (Q965D5 whole entry): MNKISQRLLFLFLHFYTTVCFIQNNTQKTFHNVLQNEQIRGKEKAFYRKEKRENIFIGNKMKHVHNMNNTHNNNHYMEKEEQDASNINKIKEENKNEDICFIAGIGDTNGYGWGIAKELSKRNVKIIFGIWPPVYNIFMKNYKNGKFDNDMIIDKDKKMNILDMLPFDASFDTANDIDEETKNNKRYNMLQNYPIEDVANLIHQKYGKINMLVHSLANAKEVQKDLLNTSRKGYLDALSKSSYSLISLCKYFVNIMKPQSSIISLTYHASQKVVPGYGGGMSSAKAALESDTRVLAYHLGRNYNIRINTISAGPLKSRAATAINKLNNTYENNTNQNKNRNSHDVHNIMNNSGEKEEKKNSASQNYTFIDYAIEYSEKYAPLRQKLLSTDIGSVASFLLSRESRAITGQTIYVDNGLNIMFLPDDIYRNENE

[2] = tested on: Trypanosoma brucei rhodesiense; assay: Antitrypanosomal activity against Trypanosoma brucei rhodesiense after 72 hrs by Alamar blue assay; type: functional, organism-based
Leishmania donovani = assay: Antileishmanial activity against Leishmania donovani after 72 hrs by Alamar blue assay; type: functional, organism-based
L6 = assay: Cytotoxicity against rat L6 cells after 72 hrs; type: cell-based; conditions: L6, 72 h
Trypanosoma cruzi = assay: Antitrypanosomal activity against Trypanosoma cruzi after 72 hrs; type: functional, organism-based
Plasmodium falciparum = assay: Antimalarial activity against chloroquine-resistant, pyrimethamine-resistant Plasmodium falciparum K1 after 48 hrs; type: functional, organism-based; conditions: K1, 48 h
[3] = target: T1, Enoyl-acyl-carrier protein reductase; assay: Inhibition of Plasmodium falciparum FabI in presence of variable crotonyl-coA level
[4] = target: T1, Enoyl-acyl-carrier protein reductase; assay: Inhibition of Plasmodium falciparum FabI in presence of variable NADH levels

Row | Structure (SMILES) | pIC50 [1] | IC50 [2] [mg/L] | IC50 (Leishmania donovani) [mg/L] | IC50 (L6) [mg/L] | IC50 (Trypanosoma cruzi) [mg/L] | IC50 (Plasmodium falciparum) [mg/L] | pKi [3] | pKi [4]
1 | Oc1cc(Cl)ccc1Oc1ccc(Cl)cc1Cl [TRICLOSAN] | 7.32 | – | – | – | – | – | – | –
2 | O=C(O)C(F)(F)F.O=C(O)c1cc(Br)c(Br)[nH]1 | 3.98 | 25.2 | 5.8 | > 90 | > 30 | 49.9 | – | –
3 | Nc1ncc(/C=C/CNC(=O)c2cc(Br)c(Br)[nH]2)[nH]1.O=C(O)C(F)(F)F [OROIDIN TFA SALT] | 5.00 | 12.2 | 15.4 | 76.4 | > 30 | 7.9 | – | –
4 | Nc1ncc(/C=C/CNC(=O)c2cc(Br)c(Br)[nH]2)[nH]1 [OROIDIN] | 6.11 | 17.3 (≈ 44.5 µM) | > 30 | 88.6 (≈ 228 µM) | > 30 | 3.9 (≈ 10 µM) | 6.40 | 6.10
5 | Nc1nc(N)nc(Nc2ccc([As]3SCC(CO)S3)cc2)n1 (centres undefined) [MELARSOPROL] | – | 0.0027 | – | – | – | – | – | –
6 | NC/C=C/c1cnc(N)[nH]1 | < 3.14 | 2.4 (≈ 17.4 µM) | 13.1 (≈ 94.8 µM) | 0.7 (≈ 5.07 µM) | 2.5 (≈ 18.1 µM) | 7.4 (≈ 53.6 µM) | – | –
7 | COC(=O)c1cc(Br)c(Br)[nH]1 | < 3.45 | 13.3 (≈ 47 µM) | > 30 | > 90 | > 30 | > 50 | – | –
8 | O=C(Cn1ccnc1[N+](=O)[O-])NCc1ccccc1 [BENZNIDAZOLE] | – | – | – | – | 0.17 (≈ 0.653 µM) | – | – | –
9 | COc1cc([C@@H]2c3cc4c(cc3[C@H](O)[C@H]3COC(=O)[C@H]23)OCO4)cc(OC)c1OC [PODOFILOX] | – | – | – | 0.009 (≈ 0.0217 µM) | – | – | – | –
10 | O=C(O)c1cc(Br)c(Br)[nH]1 | < 3.43 | 20.9 (≈ 77.7 µM) | 7.9 (≈ 29.4 µM) | > 90 | > 30 | > 50 | – | –
11 | CC[C@@H](CC[C@@H](C)[C@H]1CC[C@H]2C3=CC[C@H]4C[C@@H](O)CC[C@]4(C)[C@H]3CC[C@]12C)C(C)C | 4.36 | 14.2 (≈ 34.2 µM) | 29.5 (≈ 71.1 µM) | > 90 | > 30 | 16.1 (≈ 38.8 µM) | – | –
12 | NCCS(=O)(=O)O [TAURINE] | < 3.10 | 83.4 (≈ 666 µM) | > 30 | > 90 | > 30 | > 50 | – | –
